According to PubChem BioAssay AID330 (DTP/NCI, 2004):
“And” between values parts separate entries of the source, which are not always exact repeats. Equal entries are not always repeated. Inconclusive results and toxic doses are left out. The calls were made as follows: active = survival T/C of 150% or more; inactive = T/C below 125% in these data.

Tested on: P388 leukemia ip, CD2F1 mice, survival T/C
Assay: NCI In Vivo Anticancer Drug Screen. Data for tumor model P388 Leukemia (intraperitoneal) in CD2F1 (CDF1) mice
Conditions: endpoint: median survival time, higher = longer survival
Procedure, shortened: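 Mice carrying the transplanted tumor received test compound or vehicle. Survival was recorded in each group, and the value is the treated-group measurement divided by that of the vehicle-treated control group.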

[1] = dose: 50.0 mg/kg/injection, schedule: Q01DX005 (ip), vehicle: Klucel (hydroxypropylcellulose) (HPC)
[2] = dose: 50.0 mg/kg/injection, schedule: Q01DX005 (ip), vehicle: saline
[3] = dose: 100.0 mg/kg/injection, schedule: Q01DX005 (ip), vehicle: Klucel (hydroxypropylcellulose) (HPC)
[4] = dose: 100.0 mg/kg/injection, schedule: Q01DX005 (ip), vehicle: saline
[5] = dose: 50.0 mg/kg/injection, schedule: Q01DX009 (ip), vehicle: saline with Tween-80
[6] = dose: 100.0 mg/kg/injection, schedule: Q01DX009 (ip), vehicle: saline with Tween-80
[7] = dose: 200.0 mg/kg/injection, schedule: Q01DX009 (ip), vehicle: saline with Tween-80
[8] = dose: 12.5 mg/kg/injection, schedule: Q01DX009 (ip), vehicle: saline with Tween-80
[9] = dose: 25.0 mg/kg/injection, schedule: Q01DX009 (ip), vehicle: saline with Tween-80
[10] = dose: 50.0 mg/kg/injection, schedule: Q01DX009 (ip), vehicle: Klucel (hydroxypropylcellulose) (HPC)
[11] = dose: 100.0 mg/kg/injection, schedule: Q01DX009 (ip), vehicle: Klucel (hydroxypropylcellulose) (HPC)

Measured: T/C

NC(Cc1ccc(O)cc1)C(=O)OC1CCCCC1 (stereo not given)
inactive: dose: 25.0 mg/kg/injection, schedule: Q04DX003 (ip), vehicle: saline with Tween-80 107 % of control | dose: 50.0 mg/kg/injection, schedule: Q04DX003 (ip), vehicle: saline with Tween-80 110 % of control | dose: 100.0 mg/kg/injection, schedule: Q04DX003 (ip), vehicle: saline with Tween-80 100 % of control | dose: 200.0 mg/kg/injection, schedule: Q04DX003 (ip), vehicle: saline with Tween-80 96 % of control | dose: 400.0 mg/kg/injection, schedule: Q04DX003 (ip), vehicle: saline with Tween-80 95 % of control

COc1ccc2cc3n(c(=N)c2c1OC)CCc1cc2c(cc1-3)OCO2
inactive: dose: 0.63 mg/kg/injection, schedule: Q01DX009 (ip), vehicle: water 101 % of control | dose: 1.25 mg/kg/injection, schedule: Q01DX009 (ip), vehicle: water 110 % of control | dose: 2.5 mg/kg/injection, schedule: Q01DX009 (ip), vehicle: water 105 % of control | dose: 5.0 mg/kg/injection, schedule: Q01DX009 (ip), vehicle: water 110 % of control | dose: 10.0 mg/kg/injection, schedule: Q01DX009 (ip), vehicle: water 110 % of control | dose: 20.0 mg/kg/injection, schedule: Q01DX009 (ip), vehicle: water 110 % of control

CC1CCCC2CCCOCN12 (stereo not given)
inactive: dose: 12.5 mg/kg/injection, schedule: Q01DX005 (ip), vehicle: Klucel (hydroxypropylcellulose) (HPC) 107 % of control | dose: 12.5 mg/kg/injection, schedule: Q01DX005 (ip), vehicle: saline 103 % of control | dose: 25.0 mg/kg/injection, schedule: Q01DX005 (ip), vehicle: Klucel (hydroxypropylcellulose) (HPC) 106 % of control | dose: 25.0 mg/kg/injection, schedule: Q01DX005 (ip), vehicle: saline 99 % of control | [1] 104 % of control | [2] 100 % of control and 104 % of control | [3] 101 % of control | [4] 122 % of control and 98 % of control

CC12CCC3(CO3)CC1CCC1C2CCC2(C)C1CCC21CO1 (stereo not given)
inactive: dose: 100.0 mg/kg/injection, schedule: Q01DX001 (ip), vehicle: saline with Tween-80 102 % of control | dose: 200.0 mg/kg/injection, schedule: Q01DX001 (ip), vehicle: saline with Tween-80 99 % of control | dose: 400.0 mg/kg/injection, schedule: Q01DX001 (ip), vehicle: saline with Tween-80 88 % of control

CC(C1N(c2ccc(C(=O)NC(CCC(=O)O)C(=O)O)cc2)CC2CNc3nc(N)[nH]c(=O)c3N21)C1N(c2ccc(C(=O)NC(CCC(=O)O)C(=O)O)cc2)CC2CNc3nc(N)[nH]c(=O)c3N21 (stereo not given)
inactive: dose: 50.0 mg/kg/injection, schedule: Q01DX001 (ip), vehicle: saline 94 % of control | dose: 100.0 mg/kg/injection, schedule: Q01DX001 (ip), vehicle: saline 108 % of control | dose: 200.0 mg/kg/injection, schedule: Q01DX001 (ip), vehicle: saline 116 % of control

ClC1=CCCCC1
inactive: dose: 25.0 mg/kg/injection, schedule: Q01DX009 (ip), vehicle: saline 100 % of control | dose: 50.0 mg/kg/injection, schedule: Q01DX009 (ip), vehicle: saline 100 % of control | dose: 100.0 mg/kg/injection, schedule: Q01DX009 (ip), vehicle: saline 110 % of control

CCNC(=O)C12CCC(C)(C(=O)O1)C2(C)C (stereo not given)
inactive: dose: 60.0 mg/kg/injection, schedule: Q01DX005 (ip), vehicle: saline 93 % of control | dose: 120.0 mg/kg/injection, schedule: Q01DX005 (ip), vehicle: saline 98 % of control | dose: 240.0 mg/kg/injection, schedule: Q01DX005 (ip), vehicle: saline 101 % of control

CCN(CC)c1ccc(NC(c2ccccc2)C(O)c2ccccc2)cc1 (stereo not given)
inactive: [1] 96 % of control | [3] 104 % of control

CC12CCC(=O)N1C(C(=O)O)CS2 (stereo not given)
inactive: dose: 12.5 mg/kg/injection, schedule: Q04DX003 (ip), vehicle: saline 119 % of control | dose: 25.0 mg/kg/injection, schedule: Q04DX003 (ip), vehicle: saline 99 % of control and 106 % of control | dose: 50.0 mg/kg/injection, schedule: Q04DX003 (ip), vehicle: saline 102 % of control and 109 % of control and 97 % of control | dose: 100.0 mg/kg/injection, schedule: Q04DX003 (ip), vehicle: saline 98 % of control and 123 % of control and 97 % of control | dose: 200.0 mg/kg/injection, schedule: Q04DX003 (ip), vehicle: saline 107 % of control | dose: 400.0 mg/kg/injection, schedule: Q04DX003 (ip), vehicle: saline 91 % of control

COc1cc([C@@H]2c3cc(O)c(OC)cc3C[C@H]3C(=O)OC[C@@H]23)ccc1O
inactive: [1] 96 % of control | [3] 96 % of control | dose: 200.0 mg/kg/injection, schedule: Q01DX005 (ip), vehicle: Klucel (hydroxypropylcellulose) (HPC) 100 % of control

Clc1c2c(c(Cl)c3c1=Nc1ncccc1O3)=Nc1ncccc1O2
inactive: [5] 100 % of control | [6] 96 % of control | [7] 99 % of control

O=C1Cc2ccccc2N1C(=O)c1cccc(Br)c1
inactive: dose: 100.0 mg/kg/injection, schedule: Q01DX001 (ip), vehicle: Klucel (hydroxypropylcellulose) (HPC) 98 % of control | dose: 200.0 mg/kg/injection, schedule: Q01DX001 (ip), vehicle: Klucel (hydroxypropylcellulose) (HPC) 95 % of control

Brc1ccc(C[N+]23CCN(CC2)CC3)cc1
inactive: [8] 95 % of control | [9] 90 % of control | [5] 90 % of control

Cn1nc(C(=O)O)c(=O)[nH]c1=O
inactive: [2] 98 % of control | [4] 95 % of control | dose: 200.0 mg/kg/injection, schedule: Q01DX005 (ip), vehicle: saline 98 % of control

CCOCCC(=O)NCC(=O)NC1C(C)OC(Nc2ncnc3nc[nH]c23)C(O)C1O (stereo not given)
inactive: dose: 3.12 mg/kg/injection, schedule: Q01DX009 (ip), vehicle: water 94 % of control | dose: 6.25 mg/kg/injection, schedule: Q01DX009 (ip), vehicle: water 100 % of control | dose: 12.5 mg/kg/injection, schedule: Q01DX009 (ip), vehicle: water 96 % of control | dose: 25.0 mg/kg/injection, schedule: Q01DX009 (ip), vehicle: water 116 % of control | dose: 50.0 mg/kg/injection, schedule: Q01DX009 (ip), vehicle: water 100 % of control

O=C(CCl)Nc1nc(=O)[nH]s1
inactive: [10] 107 % of control | [11] 107 % of control

COc1ccc(C2OC3=C(Nc4ccccc4N3)C2=O)cc1 (stereo not given)
inactive: dose: 60.0 mg/kg/injection, schedule: Q01DX005 (ip), vehicle: Klucel (hydroxypropylcellulose) (HPC) 97 % of control | dose: 120.0 mg/kg/injection, schedule: Q01DX005 (ip), vehicle: Klucel (hydroxypropylcellulose) (HPC) 97 % of control | dose: 240.0 mg/kg/injection, schedule: Q01DX005 (ip), vehicle: Klucel (hydroxypropylcellulose) (HPC) 98 % of control

COc1cc2c(cc1OC)-c1nc(Nc3ccccc3)sc1CC2
inactive: [5] 106 % of control | [6] 106 % of control | [7] 89 % of control

O=S(=O)(Cc1ccccc1)C(c1ccccc1)S(=O)(=O)Cc1ccccc1
inactive: [10] 96 % of control | [11] 91 % of control | dose: 200.0 mg/kg/injection, schedule: Q01DX009 (ip), vehicle: Klucel (hydroxypropylcellulose) (HPC) 100 % of control

O=[N+]([O-])c1cccc2c[n+](Cc3ccccc3)ccc12
inactive: [8] 113 % of control | [9] 118 % of control | [5] 107 % of control

CCN(CC)CCNc1ccc(CO)c2oc3ccc(OS(=O)(=O)c4ccc(C)cc4)cc3c(=O)c12
inactive: dose: 50.0 mg/kg/injection, schedule: Q01DX005 (ip), vehicle: saline with Tween-80 99 % of control | dose: 100.0 mg/kg/injection, schedule: Q01DX005 (ip), vehicle: saline with Tween-80 106 % of control | dose: 200.0 mg/kg/injection, schedule: Q01DX005 (ip), vehicle: saline with Tween-80 122 % of control
